Activity calls are given as the source filed them. Rule as the data show it: actives have a measured IC50 and inactives only a lower limit.
target: Envelope glycoprotein gp160 (Human immunodeficiency virus 1, UniProt Q6QLK5); assay: cell-free HIV fusion peptide-binding blockers – biochemical, uHTS, fluorescence dequenching, […] (AID 1986)
Sequence (Q6QLK5 whole entry, the tested form may be a part): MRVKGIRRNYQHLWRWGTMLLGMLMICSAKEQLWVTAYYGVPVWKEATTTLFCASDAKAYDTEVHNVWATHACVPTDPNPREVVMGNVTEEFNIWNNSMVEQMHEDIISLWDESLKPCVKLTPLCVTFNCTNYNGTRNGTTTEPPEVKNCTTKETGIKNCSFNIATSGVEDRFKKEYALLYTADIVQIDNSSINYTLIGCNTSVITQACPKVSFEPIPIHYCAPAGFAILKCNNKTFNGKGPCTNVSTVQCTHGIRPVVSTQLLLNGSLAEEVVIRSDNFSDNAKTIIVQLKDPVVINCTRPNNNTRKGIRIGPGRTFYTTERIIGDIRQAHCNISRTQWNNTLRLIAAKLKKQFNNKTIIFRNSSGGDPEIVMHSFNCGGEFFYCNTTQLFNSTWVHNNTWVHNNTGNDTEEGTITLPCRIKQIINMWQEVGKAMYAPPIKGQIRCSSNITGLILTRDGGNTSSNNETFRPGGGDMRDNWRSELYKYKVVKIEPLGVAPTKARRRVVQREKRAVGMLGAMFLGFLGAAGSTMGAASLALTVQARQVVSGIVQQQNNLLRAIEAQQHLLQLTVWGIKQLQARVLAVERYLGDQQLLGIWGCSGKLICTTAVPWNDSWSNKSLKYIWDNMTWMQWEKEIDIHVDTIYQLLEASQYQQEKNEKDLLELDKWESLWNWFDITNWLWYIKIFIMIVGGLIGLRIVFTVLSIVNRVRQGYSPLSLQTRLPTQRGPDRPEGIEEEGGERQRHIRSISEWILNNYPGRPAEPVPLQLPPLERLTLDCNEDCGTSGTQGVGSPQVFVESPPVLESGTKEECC

SMILES	IC50
CCOc1cc(/C=C2/C(=N)N3C(=NC2=O)SN=C3S(C)(=O)=O)ccc1OS(=O)(=O)c1ccccc1	12.2 µM (active)
O=C(O)c1cc(-c2ccc(/C=C3\NC(=O)N(c4ccc(Cl)cc4)C3=O)o2)ccc1Cl	22.6 µM (active)
O=C1NC(=S)N(c2ccc(F)cc2)C(=O)/C1=C\c1ccoc1	5.78 µM (active)
Cc1cc(N2C(=O)C(O)=C(C(=O)c3cc4ccccc4o3)C2c2cccc(Br)c2)no1 (stereo not given)	16.4 µM (active)
O=c1cc(-c2ccccc2Cl)oc2c(NS(=O)(=O)c3cc(Cl)cc(Cl)c3O)ccc(O)c12	9.18 µM (active)
